Converted amounts (≈) assume the structure as drawn. Where two headings read alike, the source gives them in different places.
What was measured:
[1] = test system: Phytophthora infestans; assay: microbe, parasite or virus in culture; type: cell-based; details: 72 h, 3 days, 25°C
[2] = test system: Magnaporthe oryzae; assay: microbe, parasite or virus in culture; type: cell-based; details: Pyricularia oryzae, 72 h; 3 days, 25°C
[3] = test system: Fusarium oxysporum; assay: microbe, parasite or virus in culture; type: cell-based, Fusarium oxysporum f. sp. lycopersici; details: 72 h, 3 days, 25°C
[4] = test system: Botrytis cinerea; assay: microbe, parasite or virus in culture; type: cell-based; details: 72 h, 3 days, 25°C
[5] = test system: Alternaria porri; assay: microbe, parasite or virus in culture; type: cell-based; details: 72 h, 3 days, 25°C
[6] = test system: Colletotrichum cocodes; assay: microbe, parasite or virus in culture; type: cell-based; details: 72 h, 3 days, 25°C
[7] = test system: Alternaria brassicicola; assay: microbe, parasite or virus in culture; type: cell-based; details: 72 h, 3 days, 25°C
[8] = molecular target: OXPHOS complex II (Bos taurus, UniProt P31039+P35720+Q3T189+Q95123); assay: biochemical
Chain of OXPHOS complex II (Q95123 56-158): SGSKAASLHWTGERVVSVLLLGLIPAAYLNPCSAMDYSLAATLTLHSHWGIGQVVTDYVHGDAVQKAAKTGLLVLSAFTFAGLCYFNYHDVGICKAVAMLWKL
Chain of OXPHOS complex II (P31039 44-665): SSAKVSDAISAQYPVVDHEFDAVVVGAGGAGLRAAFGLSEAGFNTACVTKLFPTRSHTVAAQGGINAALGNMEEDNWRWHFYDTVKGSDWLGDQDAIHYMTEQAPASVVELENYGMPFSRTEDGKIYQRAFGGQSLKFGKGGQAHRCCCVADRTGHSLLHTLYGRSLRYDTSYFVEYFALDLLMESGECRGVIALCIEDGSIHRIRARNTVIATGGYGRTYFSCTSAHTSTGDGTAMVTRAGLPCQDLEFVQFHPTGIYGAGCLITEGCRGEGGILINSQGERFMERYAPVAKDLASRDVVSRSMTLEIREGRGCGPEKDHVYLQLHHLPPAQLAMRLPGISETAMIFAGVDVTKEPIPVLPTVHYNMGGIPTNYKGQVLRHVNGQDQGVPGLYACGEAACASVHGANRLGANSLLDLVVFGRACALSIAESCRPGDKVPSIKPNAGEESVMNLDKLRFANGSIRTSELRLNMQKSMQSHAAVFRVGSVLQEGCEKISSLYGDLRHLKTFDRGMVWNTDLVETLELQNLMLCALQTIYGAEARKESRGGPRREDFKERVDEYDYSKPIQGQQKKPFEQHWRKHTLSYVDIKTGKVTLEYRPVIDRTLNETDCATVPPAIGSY
Chain of OXPHOS complex II (P35720 30-169): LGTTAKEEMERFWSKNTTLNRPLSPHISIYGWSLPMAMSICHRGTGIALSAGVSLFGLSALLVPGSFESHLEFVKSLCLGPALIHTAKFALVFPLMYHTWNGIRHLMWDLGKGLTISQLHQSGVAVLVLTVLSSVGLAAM
Chain of OXPHOS complex II (Q3T189 29-280): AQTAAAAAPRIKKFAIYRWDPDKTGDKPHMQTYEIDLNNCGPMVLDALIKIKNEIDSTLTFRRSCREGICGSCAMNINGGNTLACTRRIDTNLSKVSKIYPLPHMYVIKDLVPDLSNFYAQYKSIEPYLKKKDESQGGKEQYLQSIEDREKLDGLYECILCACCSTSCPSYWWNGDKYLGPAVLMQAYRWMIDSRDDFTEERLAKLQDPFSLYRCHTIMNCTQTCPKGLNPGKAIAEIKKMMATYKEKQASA

[9] = molecular target: OXPHOS complex III (Bos taurus, UniProt P00125+P00157+P13272); type: biochemical
[10] = test system: OXPHOS complex I; type: biochemical
[11] = test system: onion plants; details: in vivo
[12] = molecular target: OXPHOS complex V (Bos taurus, UniProt P00829+P19483); assay: MitoTox Complete OXPHOS Activity Assay; type: biochemical
[13] = molecular target: OXPHOS complex IV (Bos taurus, UniProt P00396+P68530); assay: biochemical
[14] = in vivo, cited from earlier work
[15] = test system: Alternaria porri; assay: microbe, parasite or virus in culture; type: cell-based
[16] = test system: Alternaria porri; assay: microbe, parasite or virus in culture; type: cell-based; remark: listed apart in the source
[17] = test system: onion purple blotch (Alternaria porri); type: in vivo, Allium cepa L.; details: sprayed at 100 μg/ml, 5 dpi

## C[C@@H]1C[C@@H]([C@H](O)CC2CC(=O)NC(=O)C2)C(=O)[C@@H](C)C1 [Cycloheximide, cycloheximide, reference compound]
[1]
  MIC: 1.6 µg/mL (≈ 5.69 µM)
[2]
  MIC: 6.3 µg/mL (≈ 22.4 µM)
[3]
  MIC: 200 µg/mL (≈ 711 µM)
[4]
  MIC: 50 µg/mL (≈ 178 µM)
[5]
  MIC: 6.3 µg/mL (≈ 22.4 µM)
[6]
  MIC: 1.6 µg/mL (≈ 5.69 µM)
[7]
  MIC: 6.3 µg/mL (≈ 22.4 µM)

## O=C(CC(=O)C(F)(F)F)c1cccs1 [TTFA, thenoyltrifluoroacetone, reference compound]
[8]
  effect on complex II activity: suppressed each complex activity in a concentration-dependent manner

## CCCCCC[C@H]1C(=O)O[C@H](C)[C@H](NC(=O)c2cccc(NC=O)c2O)C(=O)O[C@@H](C)[C@@H]1OC(=O)CC(C)C [antimycin A, reference compound]
[9]
  effect on complex III activity: suppressed each complex activity in a concentration-dependent manner

## C=CCc1ccc(O)c(-c2cc(CC=C)ccc2O)c1 [magnolol, 5,5’-di-2-propenyl-1,1’-biphenyl-2,2’-diol]
[10]
  activity of complex I: 78%
  effect on complex I activity: decreased by the magnolol treatment in a concentration-dependent manner
[11]
  phytotoxic symptoms: no phytotoxic symptoms
[1]
  MIC: > 100 µg/mL
[12]; read-out: IC50, complex V activity
  IC50: 4.7 µM
[13]
  IC50: 10.9 µM
[14]; po
  excreted in the feces and urine: > 90%
[14]
  oral dose remaining circulating in the free form: 1%
[2]
  MIC: 3.1 µg/mL (≈ 11.6 µM)
[3]
  MIC: 25 µg/mL (≈ 93.9 µM)
[15]; 10 h, read-out: IC50, spore germination
  IC50: 4.5 µg/mL (≈ 16.9 µM)
[15]; read-out: MIC, spore germination completely inhibited
  MIC: 11 µg/mL (≈ 41.3 µM)
[4]
  MIC: 25 µg/mL (≈ 93.9 µM)
[9]; read-out: IC50, complex III activity
  IC50: 19.4 µM
[5]
  MIC: 6.3 µg/mL (≈ 23.7 µM)
[16]
  inhibitory activity on mycelial growth compared with mancozeb: more potent than that of the broad-spectrum fungicide mancozeb
[16]; Alternaria porri, 168 h, read-out: IC50, mycelial growth
  IC50: 5.4 µg/mL (≈ 20.3 µM)
[16]; Alternaria porri, read-out: MIC, mycelial growth completely inhibited
  MIC: 100 µg/mL (≈ 375 µM)
[6]
  MIC: 6.3 µg/mL (≈ 23.7 µM)
[8]
  IC50: 8.3 µM
[7]
  MIC: 6.3 µg/mL (≈ 23.7 µM)

## CC[C@H]1/C=C/C=C/C[C@@H](C)[C@H](O)[C@@](C)(O)C(=O)[C@@H](C)[C@H](O)[C@@H](C)C(=O)[C@@H](C)[C@H](O)[C@@H](C)/C=C/C(=O)O[C@@H]2[C@H](C)[C@H](CC1)O[C@]1(CC[C@H](C)[C@H](C[C@@H](C)O)O1)[C@H]2C [oligomycin, reference compound]
[12]; result in words, S6 Fig
  effect on complex V activity: suppressed each complex activity in a concentration-dependent manner

## C=C(C)[C@H]1Cc2c(ccc3c2O[C@@H]2COc4cc(OC)c(OC)cc4[C@@H]2C3=O)O1 [rotenone, reference compound]
[10]
  effect on complex I activity: suppressed each complex activity in a concentration-dependent manner

## mancozeb
[17]
  disease control value: 95%

— article PMC8775252, “Characterization of Alternaria porri causing onion purple blotch and its antifungal compound magnolol identified from Caryodaphnopsis baviensis” (PLoS ONE, 2022)
